Assay results from patent US6514692B2, “Method for treatment of immunodeficiency virus infection” (priority 1996, dated 2003).
Values joined by “and” are separate entries in the source; they are usually repeats but may differ in a detail not shown here. Equal values may be shown once. Where no end group is shown, it is not given here.

Key:
in vitro = conditions: human, ME180 cells
Excerpt: (§1) ME180 cells, a cervical epithelial cell line, were obtained from the American Type Culture Collection. These cells were thawed from liquid nitrogen and grown in RPMI 1640 medium supplemented with 10t fetal bovine serum, glutamine and antibiotics. The cells were adherent and were trypsinized (0.5% trypsin in HBSS) to remove them from the flask for passaging and use in assays. For use in the microtiter transmission inhibition assay, ME180 cells were trypsinized, washed and seeded in 96-well flat bottom microtiter plates (COSTAR) at a density of 5×10^3 cells per well. The cells were incubated at 37° C. for 24 hours prior to the tart of the assay. H9 cells chronically infected with he SK1 isolate of HIV-1 were treated with 200 μg/ml mitomycin C for 60 minutes at 37° C. After treatment the cells were washed three times with tissue culture medium. The chronically infected lymphocytes were added to each well at a density of 2×10^4 cells per well. The concentration of mitomycin C used in the treatment of the lymphocytes was chosen to allow lymphocyte survival for the period of time required to transmit virus to the uninfected ME180 cells, but to die prior to the time of assay so as not to contribute to the p24 signal used as the endpoint (see below). In the transmission assay the lytic peptides D4E1 and D2A21, with and without 150 μg/ml pig mucin, were added prior to the addition of chronically infected cells or were mixed with the chronically infected cells prior to their addition to the monolayer of ME180 cells. Mucin was included because it is an abundant constituent of the normal vaginal secretions of a human being, thus any chemotherapeutic agent targeting HIV should be active in its presence if it is to have clinical value. […] The lymphocytes and peptide were co-cultured with the ME180 cells for 6 hours and then removed by washing the ME180 monolayer four times with PBS. The plate was then incubated at 37° C. for six days. Medium was removed and changed every 48 hours during the incubation stage. No further peptide was added after the initial dose. At six days post-co-cultivation, the supernatant was removed from the wells and evaluated for the quantity of p24 antigen by ELISA. The ELISA was performed according to the manufacturer's recommendations. The amount of virus production in wells treated with various concentrations of the peptides was evaluated with appropriate cell and virus controls. Data are reported as a percent of virus control at each drug concentration. Linear regression analysis was used to calculate the […] and IC95 concentrations of the transmission inhibitor. […] TI represents the toxicity index, which is the ratio of the TC50/IC50, and is an indication of the relative concentrations window that exists between efficacy and toxicity.

ME180 cells = assay: toxicity (XTT) in transmission inhibition assay; conditions: for TOXICITY VALUES (XTT), single samples: samples 1-3
Excerpt: as §1

[1] = 0.32 μg/ml, with 150 μg/ml pig mucin
[2] = 1 μg/ml, with 150 μg/ml pig mucin
[3] = 3.2 μg/ml, with 150 μg/ml pig mucin
[4] = 10 μg/ml, with 150 μg/ml pig mucin
[5] = 32 μg/ml, with 150 μg/ml pig mucin
[6] = 100 μg/ml, with 150 μg/ml pig mucin

Sequence: FKLRAKIKVRLRAKIKL [D4E1]
- viability at 6 h, 0.32 µg/mL (in vitro): 98.6%
- viability at 6 h, 1 µg/mL (in vitro): 99.2%
- viability at 6 h, 3.2 µg/mL (in vitro): 95.4%
- viability at 6 h, 10 µg/mL (in vitro): 97.7%
- viability at 6 h, 32 µg/mL (in vitro): 100%
- viability at 6 h, 100 µg/mL (in vitro): 27.1%
- TOXICITY VALUES (XTT), MEAN (ME180 cells; 0.32 μg/ml, no mucin): 0.521 O.D. @ 450/650 nm
- TOXICITY VALUES (XTT), single samples (ME180 cells; 0.32 μg/ml, no mucin): 0.518 O.D. @ 450/650 nm and 0.528 O.D. @ 450/650 nm and 0.516 O.D. @ 450/650 nm
- TOXICITY VALUES (XTT), MEAN (ME180 cells; [1]): 0.521 O.D. @ 450/650 nm
- TOXICITY VALUES (XTT), single samples (ME180 cells; [1]): 0.518 O.D. @ 450/650 nm and 0.528 O.D. @ 450/650 nm
- TOXICITY VALUES (XTT), MEAN (ME180 cells; 1 μg/ml, no mucin): 0.523 O.D. @ 450/650 nm
- TOXICITY VALUES (XTT), single samples (ME180 cells; 1 μg/ml, no mucin): 0.535 O.D. @ 450/650 nm and 0.523 O.D. @ 450/650 nm and 0.511 O.D. @ 450/650 nm
- TOXICITY VALUES (XTT), MEAN (ME180 cells; [2]): 0.523 O.D. @ 450/650 nm
- TOXICITY VALUES (XTT), single samples (ME180 cells; [2]): 0.535 O.D. @ 450/650 nm and 0.523 O.D. @ 450/650 nm and 0.511 O.D. @ 450/650 nm
- TOXICITY VALUES (XTT), MEAN (ME180 cells; 3.2 μg/ml, no mucin): 0.503 O.D. @ 450/650 nm
- TOXICITY VALUES (XTT), single samples (ME180 cells; 3.2 μg/ml, no mucin): 0.486 O.D. @ 450/650 nm and 0.513 O.D. @ 450/650 nm
- TOXICITY VALUES (XTT), MEAN (ME180 cells; [3]): 0.503 O.D. @ 450/650 nm
- TOXICITY VALUES (XTT), single samples (ME180 cells; [3]): 0.486 O.D. @ 450/650 nm and 0.513 O.D. @ 450/650 nm
- TOXICITY VALUES (XTT), MEAN (ME180 cells; 10 μg/ml, no mucin): 0.515 O.D. @ 450/650 nm
- TOXICITY VALUES (XTT), single samples (ME180 cells; 10 μg/ml, no mucin): 0.493 O.D. @ 450/650 nm and 0.526 O.D. @ 450/650 nm and 0.524 O.D. @ 450/650 nm
- TOXICITY VALUES (XTT), MEAN (ME180 cells; [4]): 0.515 O.D. @ 450/650 nm
- TOXICITY VALUES (XTT), single samples (ME180 cells; [4]): 0.493 O.D. @ 450/650 nm and 0.526 O.D. @ 450/650 nm and 0.524 O.D. @ 450/650 nm
- TOXICITY VALUES (XTT), MEAN (ME180 cells; 32 μg/ml, no mucin): 0.529 O.D. @ 450/650 nm
- TOXICITY VALUES (XTT), single samples (ME180 cells; 32 μg/ml, no mucin): 0.551 O.D. @ 450/650 nm and 0.513 O.D. @ 450/650 nm and 0.524 O.D. @ 450/650 nm
- TOXICITY VALUES (XTT), MEAN (ME180 cells; [5]): 0.529 O.D. @ 450/650 nm
- TOXICITY VALUES (XTT), single samples (ME180 cells; [5]): 0.551 O.D. @ 450/650 nm and 0.513 O.D. @ 450/650 nm and 0.524 O.D. @ 450/650 nm
- TOXICITY VALUES (XTT), MEAN (ME180 cells; 100 μg/ml, no mucin): 0.143 O.D. @ 450/650 nm
- TOXICITY VALUES (XTT), single samples (ME180 cells; 100 μg/ml, no mucin): 0.138 O.D. @ 450/650 nm and 0.162 O.D. @ 450/650 nm and 0.128 O.D. @ 450/650 nm
- TOXICITY VALUES (XTT), MEAN (ME180 cells; [6]): 0.143 O.D. @ 450/650 nm
- TOXICITY VALUES (XTT), single samples (ME180 cells; [6]): 0.138 O.D. @ 450/650 nm and 0.162 O.D. @ 450/650 nm and 0.128 O.D. @ 450/650 nm
